In data set [1] the target is T1, human ATR (ATP:cob(I)alamin adenosyltransferase; hATR) (Homo sapiens, UniProt Q96EY8).
T1 sequence (Q96EY8 33-250): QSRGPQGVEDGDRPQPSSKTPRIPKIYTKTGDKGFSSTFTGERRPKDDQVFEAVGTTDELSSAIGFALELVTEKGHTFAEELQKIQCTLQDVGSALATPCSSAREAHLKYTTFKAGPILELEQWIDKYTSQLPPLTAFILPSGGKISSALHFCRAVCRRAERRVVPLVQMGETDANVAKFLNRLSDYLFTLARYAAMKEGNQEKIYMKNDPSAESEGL
Briefly: intrinsic fluorescence titration. As to conditions: read-out: wild-type; 50 mM Tris-HCl pH 8.0. It counts as binding.

Data set [2] addresses T2, human ATR (ATP:cob(I)alamin adenosyltransferase; hATR) (Homo sapiens, UniProt Q96EY8, I96T).
T2 sequence (Q96EY8 33-250 I96T): T1 sequence (Q96EY8 33-250) with I64T
Description: intrinsic fluorescence titration. Type of data set: binding. The settings on record: read-out: p.I96T; 50 mM Tris-HCl pH 8.0.

The data set “SEC” concerns the molecule itself. Briefly: SEC. (SEC sorts molecules by how far they enter the pores of the column.)

Positions count from the first letter of the chain named. Names and notes keep the numbering of the source.

The source of these data is paper PMC2932867 (Human mutation, 2010).

Consider CNCbl, for which the Kd came to 7.8 ± 0.5 µM in data set [1] and 13.3 ± 0.3 µM in data set [2].

B1: ATP:cob(I)alamin adenosyltransferase p.I96T mutant, human, without the mitochondrial targeting sequence (enzyme, UniProt Q96EY8 33-250, looked up)
chain: T1 sequence (Q96EY8 33-250) with I64T
Regarding B1, the “stoichiometry N” value in the data set “SEC” is 3.

One may read the stoichiometry N as a count of units in the complex or per binding partner.
